Consider 7 molecules from patent US20030049597A1, “Chimeric fluorescent enzymes and uses thereof” (priority 2001, published 2003).

Read-outs that look alike come from different tables or passages of the source.

Series [1] addresses PgpCFP (Homo sapiens, UniProt P08183). The experiment in a line: Accumulation of AM ester dyes in PgpCFP transfected cells (fluorescence microscopy). As to conditions: dyes marked (CFP).
The target in series [2] is T1, PgpGFP (Homo sapiens, UniProt P08183).
Protocol: (§1) HeLa cells (ATCC CCL-2) were cultured as per ATCC recommendations.
(§2) Epifluorescence microscopy was done on an inverted IX-70 microscope (Olympus America, Melville, N.Y.). […] Excitation was provided using a 150 Watt Xenon arc lamp (OptiQuip, Beaver Falls, Pa.). Excitation and emission filters were selected using filter wheels (Ludl Electronic Products, Hawthorne, N.Y.). All filters were from Chroma Technology (Brattleboro, Vt.).
(§3) Confocal microscopy was done on an upright Axiplan 2 microscope with a LSM 510 confocal attachment (Carl Zeiss, Thomwood, N.Y.). Excitation was provided an Argon/Krypton laser with lines at 488 nm and 568 nm and a Helium/Neon laser at 633 nm. The following laser lines and emission filters were used for confocal microscopy: GFP λex=488 nm, λem=500-530 nm, Texas Red, Cy3, TMRE: λex=568 nm, λem=580 nm LP, Fura Red, daunorubicin: λex=488 nm, λem=580 nm LP.
(§4) All fluorescent dyes were from Molecular Probes. Daunorubicin was from Calbiochem. Cells were incubated with the indicated drug or dye for the indicated amount of time in Opti-MEM without phenol red and with 10 mM Hepes (Life Technologies, Rockville, Md.) in a 5% CO2, 37° C. incubator prior to observation.
Series [3] has as its target T1, PgpGFP. The series can be described thus: Accumulation of fluorescent drugs and dyes in PgpGFP transfected HeLa cells (fluorescence microscopy). As to conditions: 30 min incubation, 1 μM daunorubicin (confocal), 200 nM Ho342 (epifluorescence).
Protocol: as §1, §2, §3, §4
The target in series [4] is T1, PgpGFP. The experiment in a line: Drug mediated microtubule depolymerization in PgpGFP transfected HeLa cells (anti-b-tubulin immunofluorescence). As to conditions: for effect of PgpGFP expression on sensitivity of cells to the drug: microtubule depolymerization, 30 min. The procedure:
Cells were plated on 18 mm glass coverslips placed in 12-well dishes. […] For tubulin staining, cells were incubated for 30 minutes in the presence of indicated concentrations of vincristine (Calbiochem), colchicine (Calbiochem) or nocodazole (Sigma). Cells were then fixed, permeabilized, and labeled with 2 μg/ml Cy3-labeled anti-b-tubulin antibody, clone TUB 2.1 (Sigma).
We used a functional assay to quantify the effect of PgpGFP expression on the cytosolic activity of chemotherapeutics. Certain chemotherapeutics, such as colchicine, vincristine and nocodazole, depolymerize microtubules. The state of a cell's microtubules after being treated with these drugs is a measurement of the cellular concentration of the drug. Thus, we examined the microtubules using immunofluorescence against b-tubulin after drug treatment.

T1 sequence (P08183 whole entry): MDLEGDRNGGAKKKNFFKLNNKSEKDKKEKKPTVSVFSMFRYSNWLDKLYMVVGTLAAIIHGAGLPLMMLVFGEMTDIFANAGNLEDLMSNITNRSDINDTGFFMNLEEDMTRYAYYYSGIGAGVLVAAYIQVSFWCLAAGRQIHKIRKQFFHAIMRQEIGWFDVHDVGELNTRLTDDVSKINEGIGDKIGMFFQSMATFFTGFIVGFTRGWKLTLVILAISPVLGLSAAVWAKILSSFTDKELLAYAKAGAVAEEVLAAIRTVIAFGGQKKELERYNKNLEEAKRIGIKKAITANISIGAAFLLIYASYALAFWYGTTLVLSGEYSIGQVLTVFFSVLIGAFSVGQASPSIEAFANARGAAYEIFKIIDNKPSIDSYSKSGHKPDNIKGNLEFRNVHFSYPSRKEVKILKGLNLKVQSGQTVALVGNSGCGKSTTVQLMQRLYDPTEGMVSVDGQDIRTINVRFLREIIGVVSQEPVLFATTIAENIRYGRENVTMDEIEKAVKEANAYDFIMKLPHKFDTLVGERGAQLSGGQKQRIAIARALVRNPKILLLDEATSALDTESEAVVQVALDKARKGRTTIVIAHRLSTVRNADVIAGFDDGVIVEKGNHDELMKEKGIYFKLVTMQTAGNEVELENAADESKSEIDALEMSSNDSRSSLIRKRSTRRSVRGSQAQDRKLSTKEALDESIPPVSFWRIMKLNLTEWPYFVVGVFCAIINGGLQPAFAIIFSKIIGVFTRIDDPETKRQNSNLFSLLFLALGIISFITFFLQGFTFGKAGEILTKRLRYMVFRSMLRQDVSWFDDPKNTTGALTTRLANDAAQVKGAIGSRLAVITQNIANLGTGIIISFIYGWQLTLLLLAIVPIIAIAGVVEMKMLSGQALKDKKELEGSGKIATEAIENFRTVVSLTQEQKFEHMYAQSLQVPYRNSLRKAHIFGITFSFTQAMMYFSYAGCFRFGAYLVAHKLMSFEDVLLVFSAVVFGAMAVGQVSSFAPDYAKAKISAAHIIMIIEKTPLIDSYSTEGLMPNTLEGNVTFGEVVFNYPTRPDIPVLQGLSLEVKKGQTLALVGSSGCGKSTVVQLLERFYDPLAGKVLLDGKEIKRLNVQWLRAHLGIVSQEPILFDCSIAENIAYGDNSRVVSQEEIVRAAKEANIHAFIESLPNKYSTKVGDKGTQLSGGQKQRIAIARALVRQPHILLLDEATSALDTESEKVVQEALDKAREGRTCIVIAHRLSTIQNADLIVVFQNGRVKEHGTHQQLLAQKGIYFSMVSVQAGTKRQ
Sequence of PgpCFP (P08183 whole entry): as above

Calcein AM: in series [1], the “Effects on fluorescence (effect of PgpCFP expression on accumulation of AM esters)” value was above 10 Fold.
With `CC(=O)OCOC(=O)CN(CC(=O)OCOC(C)=O)c1ccc(C)cc1OCCOc1cc2cc(C=C3NC(=S)NC3=O)oc2cc1N(CC(=O)OCOC(C)=O)CC(=O)OCOC(C)=O` [FURA Red AM], the “Effects on fluorescence (effect of PgpGFP expression on accumulation of AM esters)” value in series [2] is on record as above 10 Fold.
Turning to `CCOc1ccc(-c2nc3ccc(-c4nc5ccc(N6CCN(C)CC6)cc5[nH]4)cc3[nH]2)cc1` [Ho342, Hoechst 33342], the “fluorescence lower in PgpGFP expressing cell compared to Pgp negative cell” value in series [3] was determined as 3 fold.
Turning to `COc1cc2c(c(OC)c1OC)-c1ccc(OC)c(=O)cc1[C@@H](NC(C)=O)CC2` [Colchicine, colchicine], the “Fold resistance (high level PgpGFP expression, drug mediated microtubule depolymerization)” value in series [4] (high level PgpGFP expression) is recorded as 5-25 fold. For the same molecule, the “effect of PgpGFP expression on sensitivity of cells to the drug” value in series [4] is recorded as “decreased the sensitivity”.
In the same order, the values of `COC(=O)Nc1nc2ccc(C(=O)c3cccs3)cc2[nH]1` [Nocodazole, nocodazole] are “None” and “no effect”.
`CC[C@]1(O)C[C@H]2CN(CCc3c([nH]c4ccccc34)[C@@](C(=O)OC)(c3cc4c(cc3OC)N(C=O)[C@H]3[C@@](O)(C(=O)OC)[C@H](OC(C)=O)[C@]5(CC)C=CCN6CC[C@]43[C@@H]65)C2)C1` [Vincristine, vincristine]: the “Fold resistance (high level PgpGFP expression, drug mediated microtubule depolymerization)” value in series [4] is recorded as 25-125 fold.
On to `CC(=O)OCOC(=O)CN(CC(=O)OCOC(C)=O)c1ccc(C)cc1OCCOc1cc2cc(-c3ncc(C(=O)OCOC(C)=O)o3)oc2cc1N(CC(=O)OCOC(C)=O)CC(=O)OCOC(C)=O` [FURA-2 AM], for which, in series [2], the “Effects on fluorescence (effect of PgpGFP expression on accumulation of AM esters)” value is given as above 10 Fold.
